Experimental data as given in US10435399B2, “HDAC6 inhibitory heterocyclic compound” (TAKEDA PHARMACEUTICAL COMPANY LIMITED, priority 2017, dated 2019).

These compounds were tested against T1, HDAC6 enzyme (Homo sapiens, UniProt Q9UBN7) (assay: HDAC6 enzyme inhibitory activity (HDAC-Glo I/II Assay kit)). Conditions: 10 μM; wells without enzyme = 100% inhibition; read-out: HDAC6 inhibitory rate (%) (10 μM).
T1 construct: transducing full length HDAC6 gene into Sf-9 insect cells; GST; purchased SignalChem; host or cells: Sf-9 insect cells
T1 sequence (Q9UBN7 1-1215): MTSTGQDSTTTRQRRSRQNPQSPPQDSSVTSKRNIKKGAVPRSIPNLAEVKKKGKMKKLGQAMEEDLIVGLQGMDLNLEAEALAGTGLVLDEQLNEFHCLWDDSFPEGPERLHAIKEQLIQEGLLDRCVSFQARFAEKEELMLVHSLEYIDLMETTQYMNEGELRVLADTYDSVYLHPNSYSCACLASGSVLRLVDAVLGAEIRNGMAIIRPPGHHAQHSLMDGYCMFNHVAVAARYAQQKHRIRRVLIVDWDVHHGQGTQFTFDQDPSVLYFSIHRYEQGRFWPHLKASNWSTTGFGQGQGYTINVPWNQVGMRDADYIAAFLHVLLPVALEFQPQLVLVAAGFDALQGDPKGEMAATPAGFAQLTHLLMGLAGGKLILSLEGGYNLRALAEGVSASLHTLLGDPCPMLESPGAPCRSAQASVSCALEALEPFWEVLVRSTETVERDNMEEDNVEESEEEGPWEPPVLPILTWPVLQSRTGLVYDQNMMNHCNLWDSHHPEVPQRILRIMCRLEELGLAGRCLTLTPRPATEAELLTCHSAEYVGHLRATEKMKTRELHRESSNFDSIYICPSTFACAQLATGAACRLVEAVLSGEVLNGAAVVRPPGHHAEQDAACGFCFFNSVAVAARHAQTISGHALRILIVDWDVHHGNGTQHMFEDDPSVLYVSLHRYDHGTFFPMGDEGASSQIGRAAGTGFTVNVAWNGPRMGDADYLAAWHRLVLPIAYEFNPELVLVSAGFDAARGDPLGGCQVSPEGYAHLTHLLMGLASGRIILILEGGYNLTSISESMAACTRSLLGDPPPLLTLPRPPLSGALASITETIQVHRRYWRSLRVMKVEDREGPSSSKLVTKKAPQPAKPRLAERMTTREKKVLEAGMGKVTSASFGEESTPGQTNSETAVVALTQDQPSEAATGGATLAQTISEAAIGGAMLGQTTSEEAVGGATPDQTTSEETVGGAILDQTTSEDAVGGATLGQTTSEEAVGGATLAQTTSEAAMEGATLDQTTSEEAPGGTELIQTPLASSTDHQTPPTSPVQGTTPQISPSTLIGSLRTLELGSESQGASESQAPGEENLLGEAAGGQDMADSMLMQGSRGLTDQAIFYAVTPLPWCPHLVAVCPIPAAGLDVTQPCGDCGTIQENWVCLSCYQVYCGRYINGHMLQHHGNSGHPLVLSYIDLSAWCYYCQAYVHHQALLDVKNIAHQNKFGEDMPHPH
Assay type: biochemical
In short: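 Luminescent HDAC-Glo I/II readout after 20 min room-temperature reaction with substrate-developer, following 60 min compound–enzyme preincubation. Enzyme: full-length HDAC6 from Sf-9 cells, GST-purified; buffer 24 mM Tris-HCl pH 7.5, 0.01% Tween-20, glutathione, salts. Wells lacking enzyme define 100% inhibition.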
In the case of `O=C1c2cc(-c3nnc(C(F)F)o3)cnc2CN1c1ccc(F)cc1-c1cccc(Cl)c1` [Example 410, 6-(3′-chloro-5-fluoro-biphenyl-2-yl)-3-(5-(difluoro-methyl)-1,3,4-oxadiazol-2-yl)-6,7-dihydro-5H-pyrrolo [3,4-b]pyridin-5-one], the inhibition at 10 µM is reported as 101%.
In the case of `Cn1cc(-c2cc(F)ccc2N2Cc3ncc(-c4nnc(C(F)F)o4)cc3C2=O)cn1` [Example 411, 3-(5-(difluoro-methyl)-1,3,4-oxadiazol-2-yl)-6-(4-fluoro-2-(1-methyl-1H-pyrazol-4-yl)phenyl)-6,7-dihydro-5H-pyrrolo[3,4-b] pyridin-5-one], the inhibition at 10 µM is reported as 100%.
In the case of `Cn1nc(C(F)(F)F)cc1-c1cc(F)ccc1N1Cc2ncc(-c3nnc(C(F)F)o3)cc2C1=O` [Example 412, 3-(5-(difluoro-methyl)-1,3,4-oxadiazol-2-yl)-6-(4-fluoro-2-(1-methyl-3-(trifluoro-methyl)-1H-pyrazol-5-yl)phenyl)-6,7-dihydro-5H-pyrrolo[3,4-b] pyridin-5-one], the inhibition at 10 µM is reported as 100%.
For `CC(C)(C)OC(=O)N[C@H]1COCC[C@H]1N1Cc2ccc(-c3nnc(C(F)F)o3)cc2C1=O` [Example 413, tert-butyl ((3R,4R)-4-(6-(5-(difluoro-methyl)-1,3,4-oxadiazol-2-yl)-1-oxo-1,3-dihydro-2H-isoindol-2-yl)tetrahydro-2H-pyran-3-yl) carbamate], the inhibition at 10 µM was 98%.
`N[C@H]1COCC[C@H]1N1Cc2ccc(-c3nnc(C(F)F)o3)cc2C1=O` [Example 414, 2-((3R,4R)-3-aminotetra-hydro-2H-pyran-4-yl)-6-(5-(difluoro-methyl)-1,3,4-oxadiazol-2-yl) isoindolin-1-one] gave an inhibition at 10 µM of 87%.
Compound `O=C1c2cc(-c3nnc(C(F)F)o3)ccc2CN1[C@@H]1CCOC[C@@H]1NCC(F)(F)F` [Example 415, 6-(5-(difluoro-methyl)-1,3,4-oxadiazol-2-yl)-2-((3R,4R)-3-((2,2,2-trifluoro-ethyl)amino)tetrahydro-2H-pyran-4-yl) isoindolin-1-one] has an inhibition at 10 µM of 101%.
`O=C1c2cc(-c3nnc(C(F)F)o3)ccc2CN1[C@@H]1CCOC[C@@H]1NCC(F)(F)C(F)(F)F` [Example 416, 6-(5-(difluoro-methyl)-1,3,4-oxadiazol-2-yl)-2-((3R,4R)-3-((2,2,3,3,3-pentafluoro-propyl)amino)tetrahydro-2H-pyran-4-yl) isoindolin-1-one] showed an inhibition at 10 µM of 101%.
`O=C1c2cc(-c3nnc(C(F)F)o3)ccc2CN1[C@@H]1CCOC[C@@H]1NC(=O)C(F)(F)C(F)(F)F` [Example 418, N-((3R,4R)-4-(6-(5-(difluoro-methyl)-1,3,4-oxadiazol-2-yl)-1-oxo-1,3-dihydro-2H-isoindol-2-yl)tetrahydro-2H-pyran-3-yl)-2,2,3,3,3-pentafluoro-propanamide] showed an inhibition at 10 µM of 99%.
Compound `Cn1ccc(CN2Cc3ncc(-c4nnc(C(F)F)o4)cc3C2=O)n1` [Example 419, 3-(5-(difluoro-methyl)-1,3,4-oxadiazol-2-yl)-6-((1-methyl-1H-pyrazol-3-yl)methyl)-6,7-dihydro-5H-pyrrolo[3,4-b] pyridin-5-one] has an inhibition at 10 µM of 99%.
With `O=C1c2cc(-c3nnc(C(F)F)o3)cc(F)c2CN1C[C@H]1CC(F)(F)CN1S(=O)(=O)c1cccc(F)c1` [Example 420, 2-(((2R)-4,4-difluoro-1-((3-fluoro-phenyl)sulfonyl)pyrrolidin-2-yl)methyl)-6-(5-(difluoro-methyl)-1,3,4-oxadiazol-2-yl)-4-fluoroiso-indolin-1-one] the inhibition at 10 µM was 99%.
For `O=C1c2cc(-c3nnc(C(F)F)o3)cc(F)c2CN1C[C@H]1CC(F)(F)CN1S(=O)(=O)CC(F)(F)F` [Example 421, 6-(5-(difluoro-methyl)-1,3,4-oxadiazol-2-yl)-2-(((2R)-4,4-difluoro-1-((2,2,2-trifluoro-ethyl)sulfonyl)pyrrolidin-2-yl)methyl)-4-fluoroiso-indolin-1-one], the inhibition at 10 µM was 98%.
`O=C1c2cc(-c3nnc(C(F)F)o3)cc(F)c2CN1C[C@H]1CC(F)(F)CN1C(=O)C1CC1` [Example 422, 2-(((2R)-1-(cyclopropyl-carbonyl)-4,4-difluoro-pyrrolidin-2-yl)methyl)-6-(5-(difluoro-methyl)-1,3,4-oxadiazol-2-yl)-4-fluoroiso-indolin-1-one] was tested, and the inhibition at 10 µM was 98%.
For `Cn1cc(CN2Cc3ncc(-c4nnc(C(F)F)o4)cc3C2=O)cn1` [Example 423, 3-(5-(difluoro-methyl)-1,3,4-oxadiazol-2-yl)-6-((1-methyl-1H-pyrazol-4-yl)methyl)-6,7-dihydro-5H-pyrrolo[3,4-b] pyridin-5-one], the inhibition at 10 µM was 99%.
For `O=C1c2cc(-c3nnc(C(F)F)o3)cnc2CN1c1ccccc1-c1cnn(C(F)F)c1` [Example 424, 3-(5-(difluoro-methyl)-1,3,4-oxadiazol-2-yl)-6-(2-(1-(difluoro-methyl)-1H-pyrazol-4-yl)phenyl)-6,7-dihydro-5H-pyrrolo[3,4-b] pyridin-5-one], the inhibition at 10 µM was 101%.
`O=C1c2cc(-c3nnc(C(F)F)o3)cnc2CN1Cc1cncc(C(F)(F)F)c1` [Example 425, 3-(5-(difluoro-methyl)-1,3,4-oxadiazol-2-yl)-6-((5-(trifluoro-methyl)pyridin-3-yl)methyl)-6,7-dihydro-5H-pyrrolo [3,4-b] pyridin-5-one] gave an inhibition at 10 µM of 99%.
With `Cn1nc(C(F)(F)F)cc1-c1c(Cl)cccc1N1Cc2ccc(-c3nnc(C(F)F)o3)cc2C1=O` [Example 426, 2-(3-chloro-2-(1-methyl-3-(trifluoro-methyl)-1H-pyrazol-5-yl)phenyl)-6-(5-(difluoro-methyl)-1,3,4-oxadiazol-2-yl) isoindolin-1-one] the inhibition at 10 µM was 99%.
`O=C1c2cc(-c3nnc(C(F)F)o3)cc(F)c2CN1C[C@H]1CCCN1S(=O)(=O)c1cccc(F)c1` [Example 427, 6-(5-(difluoro-methyl)-1,3,4-oxadiazol-2-yl)-4-fluoro-2-(((2R)-1-((3-fluorophenyl)sulfonyl)pyrrolidin-2-yl)methyl) isoindolin-1-one] was tested, and the inhibition at 10 µM was 100%.
`O=C1c2cc(-c3nnc(C(F)F)o3)cnc2CN1Cc1cccc(Br)c1` [Example 428, 6-(3-bromo-benzyl)-3-(5-(difluoro-methyl)-1,3,4-oxadiazol-2-yl)-6,7-dihydro-5H-pyrrolo [3,4-b] pyridin-5-one] gave an inhibition at 10 µM of 99%.
`O=C1c2cc(-c3nnc(C(F)F)o3)cc(F)c2CN1C[C@H]1CC(F)(F)CN1C(=O)c1ccccc1` [Example 429, 2-(((2R)-1-benzoyl-4,4-difluoro-pyrrolidin-2-yl)methyl)-6-(5-(difluoro-methyl)-1,3,4-oxadiazol-2-yl)-4-fluoroiso-indolin-1-one] was tested, and the inhibition at 10 µM was 97%.
`O=C1c2cc(-c3nnc(C(F)F)o3)cc(F)c2CN1C[C@H]1CC(F)(F)CN1S(=O)(=O)c1ccccc1` [Example 430, 6-(5-(difluoro-methyl)-1,3,4-oxadiazol-2-yl)-2-(((2R)-4,4-difluoro-1-(phenylsulfonyl)pyrrolidin-2-yl)methyl)-4-fluoroiso-indolin-1-one] showed an inhibition at 10 µM of 101%.
`Cn1nc(C(F)(F)F)cc1-c1c(F)cccc1N1Cc2ccc(-c3nnc(C(F)F)o3)cc2C1=O` [Example 431, 6-(5-(difluoro-methyl)-1,3,4-oxadiazol-2-yl)-2-(3-fluoro-2-(1-methyl-3-(trifluoro-methyl)-1H-pyrazol-5-yl)phenyl)iso-indolin-1-one] was tested, and the inhibition at 10 µM was 100%.
Compound `O=C1c2cc(-c3nnc(C(F)F)o3)cnc2CN1Cc1cccc(OC(F)(F)F)c1` [Example 432, 3-(5-(difluoro-methyl)-1,3,4-oxadiazol-2-yl)-6-(3-(trifluoro-methoxy)benzyl)-6,7-dihydro-5H-pyrrolo[3,4-b] pyridin-5-one] has an inhibition at 10 µM of 94%.

Same assay, conditions: read-out: HDAC6 inhibitory rate (%) (10 μM)
`O=C1c2cc(-c3nnc(C(F)F)o3)ccc2CN1[C@@H]1CCOC[C@@H]1NCC(F)(F)C(F)(F)C(F)(F)F` [Example 417, 6-(5-(difluoro-methyl)-1,3,4-oxadiazol-2-yl)-2-((3R,4R)-3-((2,2,3,3,4,4,4-heptafluoro-butyl)amino)tetrahydro-2H-pyran-4-yl) isoindolin-1-one] showed an inhibition at 10 µM of 101%.
